Read-outs that look alike come from different tables or passages of the source.
What was measured:
[1] = system: Key Grass and Sedge Weeds as well as Grass Crops; experiment: Post-emergent Test II herbicidal activity (Table 6); type: in vivo; conditions: post-emergence, 336 h; for pest or weed control at 70 g/ha: application rate 70 g ai/ha; for pest or weed control at 140 g/ha: application rate 140 g ai/ha
How it was run: (§1)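 Scoring: visual, 0–100% injury at 14 d versus untreated. Treatment: overhead track spray, 187 L/ha, onto plants at the first–second true leaf stage. Growth: greenhouse, ~15 h light, 23–29 °C day, 22–28 °C night.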

[2] = system: Key Broadleaf Weed and Crop Species; experiment: Post-emergent Test II herbicidal activity (Table 5); type: in vivo; conditions: post-emergence, 336 h, post-emergent, 14 days after application; for pest or weed control at 70 g/ha: 70 g ai/ha; for pest or weed control at 140 g/ha: 140 g ai/ha
How it was run: as §1

[3] = CYPES: yellow nutsedge (Cyperus esculentus), read-out: Visual Growth Reduction (%) 14 Days After Application, CYPES
[4] = DIGSA: crabgrass (Digitaria sanguinalis), read-out: Visual Growth Reduction (%) 14 Days After Application, DIGSA
[5] = ECHCG: barnyardgrass (Echinochloa crus-galli), read-out: Visual Growth Reduction (%) 14 Days After Application, ECHCG
[6] = ORYSA: rice (Oryza sativa), read-out: Visual Growth Reduction (%) 14 Days After Application, ORYSA
[7] = SETFA: giant foxtail (Setaria faberi), read-out: Visual Growth Reduction (%) 14 Days After Application, SETFA
[8] = SORVU: grain sorghum (Sorghum vulgare), read-out: Visual Growth Reduction (%) 14 Days After Application, SORVU
[9] = TRZSS (wheat, Triticum aestivum), read-out: Visual Growth Reduction (%) 14 Days After Application, TRZSS
[10] = ZEAMX: maize, corn (Zea mays), read-out: Visual Growth Reduction (%) 14 Days After Application, ZEAMX
[11] = ABUTH: velvetleaf (Abutilon theophrasti), read-out: Visual Growth Reduction (%) 14 Days After Application ABUTH
[12] = AMARE: redroot pigweed (Amaranthus retroflexus), read-out: Visual Growth Reduction (%) 14 Days After Application AMARE
[13] = BRSNN: oilseed-rape, canola (Brassica napus), read-out: Visual Growth Reduction (%) 14 Days After Application BRSNN
[14] = CHEAL: lambsquarters (Chenopodium album), read-out: Visual Growth Reduction (%) 14 Days After Application CHEAL
[15] = EPHHL: wild poinsettia (Euphorbia heterophylla), read-out: Visual Growth Reduction (%) 14 Days After Application EPHHL
[16] = HELAN: sunflower (Helianthus annuus), read-out: Visual Growth Reduction (%) 14 Days After Application HELAN
[17] = VIOTR: wild pansy (Viola tricolor), read-out: Visual Growth Reduction (%) 14 Days After Application VIOTR

Structure (SMILES)	pest or weed control at 70 g/ha [1, 3] [%]	pest or weed control at 140 g/ha [1, 3] [%]	pest or weed control at 70 g/ha [1, 4] [%]	pest or weed control at 140 g/ha [1, 4] [%]	pest or weed control at 70 g/ha [1, 5] [%]	pest or weed control at 140 g/ha [1, 5] [%]	pest or weed control at 70 g/ha [1, 6] [%]	pest or weed control at 140 g/ha [1, 6] [%]	pest or weed control at 70 g/ha [1, 7] [%]	pest or weed control at 140 g/ha [1, 7] [%]	pest or weed control at 70 g/ha [1, 8] [%]	pest or weed control at 140 g/ha [1, 8] [%]	pest or weed control at 70 g/ha [1, 9] [%]	pest or weed control at 140 g/ha [1, 9] [%]	pest or weed control at 70 g/ha [1, 10] [%]	pest or weed control at 140 g/ha [1, 10] [%]	pest or weed control at 70 g/ha [2, 11] [%]	pest or weed control at 140 g/ha [2, 11] [%]	pest or weed control at 70 g/ha [2, 12] [%]	pest or weed control at 140 g/ha [2, 12] [%]	further results
C=Cc1c(N)nc(-c2ccc(C(F)(F)F)c(F)c2)nc1C(=O)O [Compound 32, 6-Amino-2-(3-fluoro-4-(trifluoromethyl)phenyl)-5-vinylpyrimidine-4-carboxylic acid]	0 to 29	45 to 59	0 to 29	0 to 29	75 to 84	75 to 84	0 to 29	0 to 29	0 to 29	0 to 29	60 to 74	60 to 74	0 to 29	0 to 29	45 to 59	60 to 74	60 to 74	60 to 74	75 to 84	95 to 100	pest or weed control at 70 g/ha [2, 13]: 0 to 29%; pest or weed control at 140 g/ha [2, 13]: 45 to 59%; pest or weed control at 70 g/ha [2, 14]: 95 to 100%; pest or weed control at 140 g/ha [2, 14]: 95 to 100%; pest or weed control at 70 g/ha [2, 15]: 95 to 100%; pest or weed control at 140 g/ha [2, 15]: 95 to 100%; pest or weed control at 70 g/ha [2, 16]: 85 to 94%; pest or weed control at 140 g/ha [2, 16]: 85 to 94%; pest or weed control at 70 g/ha [2, 17]: 0 to 29%; pest or weed control at 140 g/ha [2, 17]: 0 to 29%; melting point: 168 to 171 °C
COC(=O)c1nc(-c2cc(F)c(C#N)cc2F)nc(N)c1OC [Compound 208]	0 to 29	0 to 29	0 to 29	0 to 29	0 to 29	0 to 29	0 to 29	0 to 29	0 to 29	0 to 29	0 to 29	0 to 29	0 to 29	0 to 29	0 to 29	0 to 29	0 to 29	0 to 29	0 to 29	0 to 29	pest or weed control at 70 g/ha [2, 13]: 0 to 29%; pest or weed control at 140 g/ha [2, 13]: 0 to 29%; pest or weed control at 70 g/ha [2, 14]: 0 to 29%; pest or weed control at 140 g/ha [2, 14]: 0 to 29%; pest or weed control at 70 g/ha [2, 15]: 30 to 44%; pest or weed control at 140 g/ha [2, 15]: 45 to 59%; pest or weed control at 70 g/ha [2, 16]: 0 to 29%; pest or weed control at 140 g/ha [2, 16]: 45 to 59%; pest or weed control at 70 g/ha [2, 17]: 0 to 29%; pest or weed control at 140 g/ha [2, 17]: 0 to 29%; melting point: 165 to 166.5 °C

From US9113629B2, “4-amino-6-(4-substituted-phenyl)-picolinates and 6-amino-2-(4-substituted-phenyl)-pyrimidine-4-carboxylates and their use as herbicides” (DOW AGROSCIENCES LLC, priority 2013, dated 2015)
